# According to patent publication US20030232419A1, “Molecules interacting with CASL (MICAL) polynucleotides, polypeptides, and methods of using the same” (priority 2002, published 2003):
# T1: NADPH-cytochrome P450 reductase (Homo sapiens, UniProt P16435)
# T1 sequence (P16435 1-677): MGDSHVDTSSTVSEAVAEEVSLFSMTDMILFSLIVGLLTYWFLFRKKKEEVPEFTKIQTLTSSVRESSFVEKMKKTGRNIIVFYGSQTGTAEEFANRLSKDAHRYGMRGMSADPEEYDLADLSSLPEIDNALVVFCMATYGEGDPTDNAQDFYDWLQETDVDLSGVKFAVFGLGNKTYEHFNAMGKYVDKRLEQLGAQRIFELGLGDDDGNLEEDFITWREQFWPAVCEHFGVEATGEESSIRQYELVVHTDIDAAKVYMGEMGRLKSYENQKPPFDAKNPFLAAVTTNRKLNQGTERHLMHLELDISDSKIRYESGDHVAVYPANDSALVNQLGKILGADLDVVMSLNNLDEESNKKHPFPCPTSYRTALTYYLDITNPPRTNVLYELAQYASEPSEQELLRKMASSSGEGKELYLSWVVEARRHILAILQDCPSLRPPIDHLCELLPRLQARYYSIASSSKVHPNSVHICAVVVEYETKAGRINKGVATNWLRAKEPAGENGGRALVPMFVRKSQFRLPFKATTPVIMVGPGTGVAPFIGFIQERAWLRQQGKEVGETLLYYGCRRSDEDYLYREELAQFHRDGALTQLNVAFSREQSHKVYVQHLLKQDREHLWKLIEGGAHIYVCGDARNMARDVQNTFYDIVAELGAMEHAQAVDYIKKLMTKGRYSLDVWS
# B1: Unc5, Drosophila (receptor, UniProt Q95TU8 31-1072, looked up)
# chain: ELPQLDYGSLSASLEEDAIDPLTAMAPFANSLVTEESAQHKNNAELLGNSSEDENVRPQQGSSSSGLGSSGAAGGSGILLEEFNSGKLSPGEASNTLPIFLIEPESVFVVKNRPAVLKCKASHSLQVIFKCSGSSQPPPSTHETHVDPHTGVNMEEVTATIHRDLVDEFFGDGPFKCECHAWSSRGVVKSQAATVHIAYIRKSFNQSPTSLRLELGSRAELRCEPPGGFPEPKLTWHKNNAVITADSEPGITVSAGTLIFRQVALQHMANYSCSAENIAGRRVSDSAVLIVYVNGGWSTWSPWRECKCAGKPSQGRKRSRTCNNPMPLNGGAQCPGPQIQKSADCAACPEDTQIVSPDGFDISSSKRMARWSAWSDWSICSAECIQVRRRKCLTQGQTQISSEAEEAGDLLLGAPGVGMAALIAAAGVGAVGSPSEATGSSSDIIPGYGKSLCAGKDIQTAECRGEQCQIGKDDFDWTLYLGLAFITAVCFAFGTALICCARRGIRTNPHYNMARSVMDADYMPGVVEKKEMRMHIEASNMGYDYVNPGHRYLPGEHIMGMGIGCGGVTEHHYDVPNLSANYTNPIDHLSVDYLSETGESSTADTSNSTFDMNGKLSILNASKSSTYEMLGSAGGQLRLYGGELLLFVPEHAIGKHVKKHVSLLLLSDECSRVSCATESSILCSSVVHSAPRNYSFVKPVILKIPHCLVAPEQWHVHIYHADSEHDELSVNWRRAVSVGEETINTPMFVQLEATHVFIMTEQLGHFTVVAEPRIQQPSIKMKLLAFSQHTPPSNANCSLRIYVVKDFPNSRDICANVEAKLGGSFLGESQVFAFTLNSRNLNIRVRSADVEAAAPYEHAIPYQHILSNNSILHCEFSLRRQDQNSLCVDFGQGSEDDYYTFNIPAHSMSGSAEELASTTNTTISIDRQGNYVNESCVMDFVQLPHATKRLICGALDPPRADERDWRLLAKKLNTDRYIAYFATKASPTEQILNLWECRANSSPGSSSNSVSHTIMALLLTLKEMGRQDVLDIIVETIGPLWI
# notes: Specificity control in the co-immunoprecipitation
# Assays:
# [1] = molecular target: p-hydroxybenzoate hydroxylase (pHBH) (Pseudomonas aeruginosa, UniProt P20586); conditions: cited from earlier work
# [2] = molecular target: T1, NADPH-cytochrome P450 reductase; conditions: similar concentrations of EGCG; cited from earlier work
# [3] = test system: Sema3A-mediated axonal repulsion of NGF-dependent DRG axons; experiment: in vitro rat DRG growth cone repulsion assay using Sema 3A-secreting 293 cells; assay type: cell-based; conditions: for attenuation of Sema 3A mediated axonal repulsion: inhibitors of other redox enzymes at concentrations previously shown to be effective in cell culture conditions
# Procedure: FIG. 4A provides a schematic diagram of the rat D E14/15 Rat DRG explants were co-cultured with 293 cells expressing Sema 3A and grown for 48 hours in the presence of an inhibitor or vehicle. Axonal outgrowth was determined by measuring proximal (P) and distal (D) axon lengths.
# DRG repulsion assays were performed as described (Messersmith et al., 1995).
# (§1) Scoring was done by splitting explants into quadrants and scoring all growth cones as either collapsed or not-collapsed.
# [4] = test system: phenol sulfotransferase; conditions: similar concentrations of EGCG; cited from earlier work
# [5] = test system: Sema3A-mediated growth cone collapse in NGF-dependent DRG neurons; experiment: DRG growth cone collapse assay with AP-Sema3A; assay type: cell-based, rat; conditions: 25 mM EGCG, 3 hours in EGCG prior to 1 hour 1 nM AP-Sema3A
# Excerpt: FIG. 4C provides a graph that quantitates the effects of oxidation/reduction enzyme inhibitors on Sema 3A repulsion scored as the ratio of the axon lengths on the proximal and distal sides of the explant (P/D ratio), and on Sema3A-mediated growth cone collapse indicated as % collapsed growth cones (gray). In repulsion assays, outgrowth of DRG axons on the side distal to the 293 cells appeared normal. […] For Rote, n=4, however only 4 out of 12 explants survived. (**=p<0.0001; *=p<0.001; paired t-test). Scale bar=[…].
# as §1
# [6] = molecular target: matrix metalloproteinase MMP-9 (Homo sapiens, UniProt P14780); conditions: similar concentrations of EGCG; cited from earlier work
# [7] = molecular target: telomerase (Homo sapiens, UniProt O14746); conditions: similar concentrations of EGCG; cited from earlier work
# [8] = test system: steroid 5a-reductase; conditions: similar concentrations of EGCG; cited from earlier work
# [9] = molecular target: T2, Drosophila MICAL (endogenous protein in embryo lysates) (Drosophila, UniProt Q86BA1 1-4723); experiment: co-immunoprecipitation from embryo lysates with MICAL-CT antibodies, Western blot
# T2 construct: also called "large" MICAL isoform; long isoform
# T2 sequence (Q86BA1 other isoform, or with tags, fused parts or gaps limits assumed): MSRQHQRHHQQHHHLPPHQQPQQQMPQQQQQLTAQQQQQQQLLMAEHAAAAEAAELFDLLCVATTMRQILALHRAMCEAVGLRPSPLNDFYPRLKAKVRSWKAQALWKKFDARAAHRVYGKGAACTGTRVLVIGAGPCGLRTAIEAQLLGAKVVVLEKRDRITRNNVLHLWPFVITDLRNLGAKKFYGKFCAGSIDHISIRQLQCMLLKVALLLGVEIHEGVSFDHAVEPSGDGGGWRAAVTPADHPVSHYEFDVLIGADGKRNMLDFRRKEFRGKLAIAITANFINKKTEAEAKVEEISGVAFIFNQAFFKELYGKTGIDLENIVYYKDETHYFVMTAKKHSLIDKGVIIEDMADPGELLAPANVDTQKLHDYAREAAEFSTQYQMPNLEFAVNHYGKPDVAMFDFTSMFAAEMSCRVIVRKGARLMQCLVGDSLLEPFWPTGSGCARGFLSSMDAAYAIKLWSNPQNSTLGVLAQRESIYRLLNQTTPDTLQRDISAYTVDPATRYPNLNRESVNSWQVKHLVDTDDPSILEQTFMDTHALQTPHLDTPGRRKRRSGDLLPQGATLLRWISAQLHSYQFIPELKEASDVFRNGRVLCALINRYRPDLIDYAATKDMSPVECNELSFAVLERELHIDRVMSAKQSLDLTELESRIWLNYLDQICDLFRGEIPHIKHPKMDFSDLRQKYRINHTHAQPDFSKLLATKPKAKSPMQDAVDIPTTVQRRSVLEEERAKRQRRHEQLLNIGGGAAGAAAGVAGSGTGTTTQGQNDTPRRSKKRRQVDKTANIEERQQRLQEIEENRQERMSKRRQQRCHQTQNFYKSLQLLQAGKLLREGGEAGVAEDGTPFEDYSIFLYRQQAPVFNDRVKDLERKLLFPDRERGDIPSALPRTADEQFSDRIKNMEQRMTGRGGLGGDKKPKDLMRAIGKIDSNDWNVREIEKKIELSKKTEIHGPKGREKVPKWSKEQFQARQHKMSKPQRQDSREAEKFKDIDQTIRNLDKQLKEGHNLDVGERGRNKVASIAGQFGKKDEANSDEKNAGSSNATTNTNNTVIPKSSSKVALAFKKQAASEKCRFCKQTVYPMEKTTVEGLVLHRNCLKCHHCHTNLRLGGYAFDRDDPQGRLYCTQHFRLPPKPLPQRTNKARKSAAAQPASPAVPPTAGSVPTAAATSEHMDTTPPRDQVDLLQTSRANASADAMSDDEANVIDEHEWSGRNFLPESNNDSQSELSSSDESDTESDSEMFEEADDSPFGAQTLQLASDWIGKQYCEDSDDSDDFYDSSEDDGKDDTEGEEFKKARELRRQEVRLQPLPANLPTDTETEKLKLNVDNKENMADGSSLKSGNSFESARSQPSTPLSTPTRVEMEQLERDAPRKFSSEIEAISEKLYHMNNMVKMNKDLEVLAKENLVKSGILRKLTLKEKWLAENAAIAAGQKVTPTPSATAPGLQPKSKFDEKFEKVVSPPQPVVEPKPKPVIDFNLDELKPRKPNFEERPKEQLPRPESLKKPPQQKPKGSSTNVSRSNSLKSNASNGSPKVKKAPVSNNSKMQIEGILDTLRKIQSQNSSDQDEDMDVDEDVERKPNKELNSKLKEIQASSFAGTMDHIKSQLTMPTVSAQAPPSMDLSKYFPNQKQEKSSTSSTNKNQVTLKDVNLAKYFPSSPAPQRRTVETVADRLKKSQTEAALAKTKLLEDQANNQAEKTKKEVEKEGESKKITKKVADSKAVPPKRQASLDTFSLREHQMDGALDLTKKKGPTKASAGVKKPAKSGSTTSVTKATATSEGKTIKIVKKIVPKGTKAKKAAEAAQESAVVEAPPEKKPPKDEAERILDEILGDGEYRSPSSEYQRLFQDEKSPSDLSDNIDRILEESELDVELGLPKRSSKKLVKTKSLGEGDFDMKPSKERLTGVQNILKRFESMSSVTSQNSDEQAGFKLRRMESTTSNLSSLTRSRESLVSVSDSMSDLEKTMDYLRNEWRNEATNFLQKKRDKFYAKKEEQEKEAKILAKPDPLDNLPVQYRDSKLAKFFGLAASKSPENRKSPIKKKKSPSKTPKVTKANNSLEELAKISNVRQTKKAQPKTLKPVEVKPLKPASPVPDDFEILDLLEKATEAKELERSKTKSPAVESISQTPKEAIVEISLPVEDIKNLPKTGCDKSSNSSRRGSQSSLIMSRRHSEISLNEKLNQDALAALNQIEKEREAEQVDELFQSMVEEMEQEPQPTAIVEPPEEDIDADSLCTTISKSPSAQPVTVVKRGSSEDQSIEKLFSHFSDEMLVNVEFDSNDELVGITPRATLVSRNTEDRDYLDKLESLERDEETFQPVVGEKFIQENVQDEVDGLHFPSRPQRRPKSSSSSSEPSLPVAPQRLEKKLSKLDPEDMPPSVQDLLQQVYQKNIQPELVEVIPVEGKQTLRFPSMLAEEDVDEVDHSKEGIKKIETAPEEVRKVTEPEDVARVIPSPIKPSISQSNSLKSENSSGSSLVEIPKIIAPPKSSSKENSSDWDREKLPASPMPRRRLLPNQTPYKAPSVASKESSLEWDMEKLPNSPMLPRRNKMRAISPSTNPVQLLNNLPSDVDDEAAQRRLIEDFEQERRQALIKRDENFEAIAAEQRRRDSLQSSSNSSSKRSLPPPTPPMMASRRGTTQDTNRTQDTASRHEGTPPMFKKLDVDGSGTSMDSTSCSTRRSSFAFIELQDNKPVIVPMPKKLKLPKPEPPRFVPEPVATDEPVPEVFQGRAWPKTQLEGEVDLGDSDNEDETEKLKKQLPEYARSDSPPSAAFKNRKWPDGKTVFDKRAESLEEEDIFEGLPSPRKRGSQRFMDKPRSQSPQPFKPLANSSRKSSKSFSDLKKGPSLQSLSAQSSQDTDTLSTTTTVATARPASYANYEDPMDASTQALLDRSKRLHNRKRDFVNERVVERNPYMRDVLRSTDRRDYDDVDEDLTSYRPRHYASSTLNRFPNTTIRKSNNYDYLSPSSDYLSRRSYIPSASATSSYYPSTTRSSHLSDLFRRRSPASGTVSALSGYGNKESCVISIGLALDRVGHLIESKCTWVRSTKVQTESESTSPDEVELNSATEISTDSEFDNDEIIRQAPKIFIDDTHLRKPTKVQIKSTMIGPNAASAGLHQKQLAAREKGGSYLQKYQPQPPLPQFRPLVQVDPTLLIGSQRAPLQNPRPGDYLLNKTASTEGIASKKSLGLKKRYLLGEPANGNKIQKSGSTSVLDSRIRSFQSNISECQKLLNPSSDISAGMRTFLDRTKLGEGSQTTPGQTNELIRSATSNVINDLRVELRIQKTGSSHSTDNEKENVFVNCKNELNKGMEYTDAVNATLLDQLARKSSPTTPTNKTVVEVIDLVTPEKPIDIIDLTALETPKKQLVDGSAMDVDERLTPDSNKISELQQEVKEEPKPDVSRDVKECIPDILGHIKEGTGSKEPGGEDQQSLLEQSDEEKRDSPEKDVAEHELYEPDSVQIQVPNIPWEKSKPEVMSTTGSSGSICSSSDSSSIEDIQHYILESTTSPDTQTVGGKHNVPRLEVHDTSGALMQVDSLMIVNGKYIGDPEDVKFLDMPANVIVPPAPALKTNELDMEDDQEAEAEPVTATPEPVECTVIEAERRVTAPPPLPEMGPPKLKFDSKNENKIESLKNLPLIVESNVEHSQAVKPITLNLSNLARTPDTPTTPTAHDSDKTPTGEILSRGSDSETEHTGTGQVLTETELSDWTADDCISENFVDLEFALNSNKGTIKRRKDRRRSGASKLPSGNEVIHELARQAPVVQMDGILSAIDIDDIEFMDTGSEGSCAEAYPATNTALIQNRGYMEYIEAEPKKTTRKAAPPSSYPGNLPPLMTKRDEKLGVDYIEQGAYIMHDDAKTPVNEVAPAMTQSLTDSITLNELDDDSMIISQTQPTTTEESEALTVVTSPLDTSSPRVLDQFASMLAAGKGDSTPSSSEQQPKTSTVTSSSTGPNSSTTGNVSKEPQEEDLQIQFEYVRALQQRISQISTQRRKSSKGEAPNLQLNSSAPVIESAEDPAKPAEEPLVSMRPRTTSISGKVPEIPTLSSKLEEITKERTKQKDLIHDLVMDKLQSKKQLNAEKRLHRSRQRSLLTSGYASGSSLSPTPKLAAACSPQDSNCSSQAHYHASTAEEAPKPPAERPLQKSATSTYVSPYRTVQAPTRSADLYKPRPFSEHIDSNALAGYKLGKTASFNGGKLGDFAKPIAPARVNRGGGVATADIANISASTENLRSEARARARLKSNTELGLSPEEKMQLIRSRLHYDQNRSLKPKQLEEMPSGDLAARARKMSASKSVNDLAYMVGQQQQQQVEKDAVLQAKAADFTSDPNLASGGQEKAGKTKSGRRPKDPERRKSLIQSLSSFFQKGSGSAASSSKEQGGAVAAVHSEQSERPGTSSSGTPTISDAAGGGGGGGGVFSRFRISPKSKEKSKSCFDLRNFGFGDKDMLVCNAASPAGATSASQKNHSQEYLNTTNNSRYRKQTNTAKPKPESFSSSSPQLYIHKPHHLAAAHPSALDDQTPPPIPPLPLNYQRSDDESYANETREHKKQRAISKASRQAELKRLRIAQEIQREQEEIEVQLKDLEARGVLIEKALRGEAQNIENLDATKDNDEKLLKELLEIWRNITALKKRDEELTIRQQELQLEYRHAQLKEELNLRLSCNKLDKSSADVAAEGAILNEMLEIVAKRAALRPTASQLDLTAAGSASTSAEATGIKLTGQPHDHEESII
# Chain of p-hydroxybenzoate hydroxylase (pHBH) (P20586 whole entry): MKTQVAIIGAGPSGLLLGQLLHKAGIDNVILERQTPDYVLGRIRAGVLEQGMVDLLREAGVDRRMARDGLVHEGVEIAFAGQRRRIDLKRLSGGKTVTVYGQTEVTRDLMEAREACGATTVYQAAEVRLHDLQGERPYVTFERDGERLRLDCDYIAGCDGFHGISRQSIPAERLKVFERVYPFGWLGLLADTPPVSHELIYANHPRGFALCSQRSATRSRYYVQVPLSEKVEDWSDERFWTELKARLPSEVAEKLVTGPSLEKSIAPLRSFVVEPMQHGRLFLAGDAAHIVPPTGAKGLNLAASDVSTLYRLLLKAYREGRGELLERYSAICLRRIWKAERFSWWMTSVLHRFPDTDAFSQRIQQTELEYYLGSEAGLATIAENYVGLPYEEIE
molecule,measurement,setting,value
(−)-epigallocatechin gallate [EGCG],inhibition of p-hydroxybenzoate hydroxylase (pHBH),[1],potent and selective inhibitors
same,inhibition of NADPH-cytochrome P450 reductase,[2],inhibit
same,Sema3A repulsion,"[3]; 25 mM EGCG added to the growth media, E14/15 rat DRG explants co-cultured with Sema 3A 293 cells for 48 hours",completely neutralized
same,inhibition of phenol sulfotransferase,[4],inhibit
same,Sema3A-mediated growth cone collapse,[5],dramatically abrogates
same,inhibition of MMP-9,[6],inhibit
same,inhibition of telomerase,[7],inhibit
same,inhibition of steroid 5a-reductase,[8],inhibit
C=C(C)[C@H]1Cc2c(ccc3c2O[C@@H]2COc4cc(OC)c(OC)cc4[C@@H]2C3=O)O1 [rotenone],attenuation of Sema 3A mediated axonal repulsion,[3],No attenuation
same,explants survived,"[3]; repulsion assay, n=4",4 out of 12
Oc1ncnc2[nH]ncc12 [allopurinol],attenuation of Sema 3A mediated axonal repulsion,[3],No attenuation
B1,binding result,[9],no binding
